Results on 33 molecules are retold here after ChEMBL document CHEMBL1697731, “Cheminformatics analysis of assertions mined from literature that describe drug-induced liver injury in different species” (Chem Res Toxicol, 2010).

The structures appear in SMILES notation.

Data set [1] deals with Hepatotoxicity. As to the kind of experiment: Literature-mined compound from Fourches et al multi-species drug-induced liver injury (DILI) dataset, effect in rodents. Conditions: rodentia.
For data set [2], the system named is Hepatotoxicity. As to the kind of experiment: Literature-mined compound from Fourches et al multi-species drug-induced liver injury (DILI) dataset, effect in non-rodents.
For data set [3], the system named is Hepatotoxicity. Nature of the data set: Literature-mined compound from Fourches et al multi-species drug-induced liver injury (DILI) dataset, effect in humans. The settings on record: human.

Consider `CCCCC[C@H](O)/C=C/[C@H]1[C@H](O)CC(=O)[C@@H]1CCCCCCC(=O)O` [ALPROSTADIL], for which the Hepatotoxicity result in the data set with Hepatotoxicity [1], in the data set on Hepatotoxicity [2] and in the data set with Hepatotoxicity [3] was “drug-induced liver injury reported” each time.
`CCN(CCCc1ccccc1)CCCc1ccccc1` [ALVERINE]: the figures for the Hepatotoxicity result in the data set with Hepatotoxicity [1], with Hepatotoxicity [2] and with Hepatotoxicity [3] were “no drug-induced liver injury reported”, “no drug-induced liver injury reported” and “drug-induced liver injury reported”, respectively.
With `CN1CC[C@H](c2c(O)cc(O)c3c(=O)cc(-c4ccccc4Cl)oc23)[C@H](O)C1` [ALVOCIDIB], the Hepatotoxicity entry was “no drug-induced liver injury reported” in the data set on Hepatotoxicity [1], “no drug-induced liver injury reported” with Hepatotoxicity [2] and “drug-induced liver injury reported” with Hepatotoxicity [3].
With `NC12CC3CC(CC(C3)C1)C2` [AMANTADINE], the results for the Hepatotoxicity entry in the data set with Hepatotoxicity [1], in the data set on Hepatotoxicity [2] and in the data set on Hepatotoxicity [3] were “drug-induced liver injury reported”, “no drug-induced liver injury reported” and “no drug-induced liver injury reported”, respectively.
On to `COC(c1ccccc1)(c1ccccc1)[C@H](Oc1nc(C)cc(C)n1)C(=O)O` [AMBRISENTAN], for which the Hepatotoxicity entry was “no drug-induced liver injury reported” in the data set with Hepatotoxicity [1], “drug-induced liver injury reported” in the data set on Hepatotoxicity [2] and “no drug-induced liver injury reported” in the data set on Hepatotoxicity [3].
As to `Nc1c(Br)cc(Br)cc1CN[C@H]1CC[C@H](O)CC1` [AMBROXOL], the Hepatotoxicity entry in the data set with Hepatotoxicity [1] is recorded as “drug-induced liver injury reported”; with Hepatotoxicity [2] it was “no drug-induced liver injury reported”; with Hepatotoxicity [3] it was “no drug-induced liver injury reported”.
Turning to `NCC[C@H](O)C(=O)N[C@@H]1C[C@H](N)[C@@H](O[C@H]2O[C@H](CN)[C@@H](O)[C@H](O)[C@H]2O)[C@H](O)[C@H]1O[C@H]1O[C@H](CO)[C@@H](O)[C@H](N)[C@H]1O` [AMIKACIN], the Hepatotoxicity result with Hepatotoxicity [1] is “no drug-induced liver injury reported”; in the data set with Hepatotoxicity [2], “drug-induced liver injury reported”; in the data set on Hepatotoxicity [3] it was “drug-induced liver injury reported”.
Consider `N=C(N)NC(=O)c1nc(Cl)c(N)nc1N` [AMILORIDE], for which the Hepatotoxicity entry is given as “drug-induced liver injury reported” with Hepatotoxicity [1], “no drug-induced liver injury reported” with Hepatotoxicity [2] and “drug-induced liver injury reported” in the data set on Hepatotoxicity [3].
For the molecule `O=C(O)CCCCCCNC1c2ccccc2CCc2ccccc21` [AMINEPTINE], the results for the Hepatotoxicity result with Hepatotoxicity [1], with Hepatotoxicity [2] and with Hepatotoxicity [3] were “drug-induced liver injury reported”, “no drug-induced liver injury reported” and “drug-induced liver injury reported”, respectively.
Consider `Nc1ccc(C(=O)O)cc1` [AMINOBENZOIC ACID], for which the Hepatotoxicity result in the data set with Hepatotoxicity [1] was “drug-induced liver injury reported”; in the data set on Hepatotoxicity [2], “no drug-induced liver injury reported”; with Hepatotoxicity [3], “no drug-induced liver injury reported”.
Regarding `NCCCCCC(=O)O` [AMINOCAPROIC ACID], the values for the Hepatotoxicity entry in the data set with Hepatotoxicity [1], with Hepatotoxicity [2] and with Hepatotoxicity [3] were “no drug-induced liver injury reported”, “no drug-induced liver injury reported” and “drug-induced liver injury reported”, respectively.
In the case of `CCC1(c2ccc(N)cc2)CCC(=O)NC1=O` (centres undefined) [AMINOGLUTETHIMIDE], the Hepatotoxicity entry is listed as “drug-induced liver injury reported” in the data set with Hepatotoxicity [1], “no drug-induced liver injury reported” in the data set with Hepatotoxicity [2] and “no drug-induced liver injury reported” with Hepatotoxicity [3].
In the case of `Cn1c(=O)c2[nH]cnc2n(C)c1=O.Cn1c(=O)c2[nH]cnc2n(C)c1=O.NCCN` [AMINOPHYLLINE], the Hepatotoxicity entry is given as “drug-induced liver injury reported” with Hepatotoxicity [1], “no drug-induced liver injury reported” in the data set with Hepatotoxicity [2] and “drug-induced liver injury reported” with Hepatotoxicity [3].
Regarding `Cc1c(N(C)C)c(=O)n(-c2ccccc2)n1C` [AMINOPYRINE], the values for the Hepatotoxicity entry with Hepatotoxicity [1], in the data set with Hepatotoxicity [2] and with Hepatotoxicity [3] were “drug-induced liver injury reported”, “no drug-induced liver injury reported” and “drug-induced liver injury reported”, respectively.
With `Nc1ccc(C(=O)O)c(O)c1` [AMINOSALICYLIC ACID], the Hepatotoxicity result was “no drug-induced liver injury reported” with Hepatotoxicity [1], “no drug-induced liver injury reported” in the data set with Hepatotoxicity [2] and “drug-induced liver injury reported” in the data set with Hepatotoxicity [3].
As to `CCCCc1oc2ccccc2c1C(=O)c1cc(I)c(OCCN(CC)CC)c(I)c1` [AMIODARONE], the Hepatotoxicity entry in the data set with Hepatotoxicity [1] (Liver), with Hepatotoxicity [2] (Liver) and in the data set on Hepatotoxicity [3] (Liver) was “drug-induced liver injury reported” in each case.
For the molecule `CN(C)CCC=C1c2ccccc2CCc2ccccc21` [AMITRIPTYLINE], the Hepatotoxicity result with Hepatotoxicity [1] is reported as “drug-induced liver injury reported”; with Hepatotoxicity [2], “no drug-induced liver injury reported”; in the data set with Hepatotoxicity [3], “drug-induced liver injury reported”.
As for `CCOC(=O)C1=C(COCCN)NC(C)=C(C(=O)OC)C1c1ccccc1Cl` (centres undefined) [AMLODIPINE], the values for the Hepatotoxicity entry in the data set on Hepatotoxicity [1], with Hepatotoxicity [2] and with Hepatotoxicity [3] were “drug-induced liver injury reported”, “no drug-induced liver injury reported” and “no drug-induced liver injury reported”, respectively.
In the case of `CCC1(CCC(C)C)C(=O)NC(=O)NC1=O` [AMOBARBITAL], the Hepatotoxicity entry with Hepatotoxicity [1] is recorded as “drug-induced liver injury reported”; with Hepatotoxicity [2], “no drug-induced liver injury reported”; in the data set with Hepatotoxicity [3], “no drug-induced liver injury reported”.
Take `CC1(C)S[C@@H]2[C@H](NC(=O)[C@H](N)c3ccc(O)cc3)C(=O)N2[C@H]1C(=O)O.O=C([O-])[C@H]1/C(=C/CO)O[C@@H]2CC(=O)N21.[K+]` [AMOXICILLIN/CLAVULANIC ACID]: the values for the Hepatotoxicity entry in the data set with Hepatotoxicity [1], in the data set with Hepatotoxicity [2] and in the data set on Hepatotoxicity [3] were “no drug-induced liver injury reported”, “no drug-induced liver injury reported” and “drug-induced liver injury reported”, respectively.
With `CC1(C)S[C@@H]2[C@H](NC(=O)[C@H](N)c3ccc(O)cc3)C(=O)N2[C@H]1C(=O)O` [AMOXICILLIN], the figures for the Hepatotoxicity result with Hepatotoxicity [1], in the data set on Hepatotoxicity [2] and in the data set on Hepatotoxicity [3] were “no drug-induced liver injury reported”, “no drug-induced liver injury reported” and “drug-induced liver injury reported”, respectively.
As to `CC(N)Cc1ccccc1` (centres undefined) [AMPHETAMINE], the Hepatotoxicity result is “drug-induced liver injury reported” in the data set on Hepatotoxicity [1], “no drug-induced liver injury reported” with Hepatotoxicity [2] and “drug-induced liver injury reported” with Hepatotoxicity [3].
As to `C[C@@H]1[C@H](O)[C@@H](C)/C=C/C=C/C=C/C=C/C=C/C=C/C=C/[C@H](O[C@@H]2O[C@H](C)[C@@H](O)[C@H](N)[C@@H]2O)C[C@@H]2O[C@](O)(C[C@@H](O)C[C@@H](O)[C@H](O)CC[C@@H](O)C[C@@H](O)CC(=O)O[C@H]1C)C[C@H](O)[C@H]2C(=O)O` [AMPHOTERICIN B], the Hepatotoxicity result in the data set on Hepatotoxicity [1] is given as “drug-induced liver injury reported”; in the data set on Hepatotoxicity [2], “no drug-induced liver injury reported”; in the data set on Hepatotoxicity [3] it was “drug-induced liver injury reported”.
On to `CC1(C)S[C@@H]2[C@H](NC(=O)[C@H](N)c3ccccc3)C(=O)N2[C@H]1C(=O)O` [AMPICILLIN], for which the Hepatotoxicity entry is “drug-induced liver injury reported” with Hepatotoxicity [1], “no drug-induced liver injury reported” in the data set with Hepatotoxicity [2] and “drug-induced liver injury reported” with Hepatotoxicity [3].
`COc1cc(NS(C)(=O)=O)ccc1Nc1c2ccccc2nc2ccccc12` [AMSACRINE]: the Hepatotoxicity entry in the data set on Hepatotoxicity [1] is on record as “no drug-induced liver injury reported”; in the data set with Hepatotoxicity [2], “no drug-induced liver injury reported”; with Hepatotoxicity [3] it was “drug-induced liver injury reported”.
Regarding `CC(C)(C#N)c1cc(Cn2cncn2)cc(C(C)(C)C#N)c1` [ANASTROZOLE], the Hepatotoxicity result is reported as “no drug-induced liver injury reported” in the data set on Hepatotoxicity [1], “no drug-induced liver injury reported” with Hepatotoxicity [2] and “drug-induced liver injury reported” in the data set on Hepatotoxicity [3].
`COc1ccc(-c2cc(=S)ss2)cc1` [ANETHOLTRITHION]: the Hepatotoxicity result in the data set with Hepatotoxicity [1] is “drug-induced liver injury reported”; with Hepatotoxicity [2], “no drug-induced liver injury reported”; with Hepatotoxicity [3], “no drug-induced liver injury reported”.
For the molecule `O=C1c2c(O)cccc2Cc2cccc(O)c21` [ANTHRALIN], the results for the Hepatotoxicity entry in the data set on Hepatotoxicity [1], in the data set on Hepatotoxicity [2] and with Hepatotoxicity [3] were “drug-induced liver injury reported”, “no drug-induced liver injury reported” and “drug-induced liver injury reported”, respectively.
`CN1CCc2cccc3c2[C@H]1Cc1ccc(O)c(O)c1-3` [APOMORPHINE]: the Hepatotoxicity entry in the data set on Hepatotoxicity [1] is reported as “drug-induced liver injury reported”; in the data set on Hepatotoxicity [2] it was “no drug-induced liver injury reported”; in the data set on Hepatotoxicity [3], “no drug-induced liver injury reported”.
For `C=CCC1(C(C)C)C(=O)NC(=O)NC1=O` [APROBARBITAL], the values for the Hepatotoxicity result in the data set with Hepatotoxicity [1], in the data set with Hepatotoxicity [2] and in the data set with Hepatotoxicity [3] were “drug-induced liver injury reported”, “no drug-induced liver injury reported” and “no drug-induced liver injury reported”, respectively.
`N=C(N)NCCC[C@H](N)C(=O)O` [ARGININE]: the Hepatotoxicity entry in the data set on Hepatotoxicity [1], in the data set with Hepatotoxicity [2] and with Hepatotoxicity [3] was “drug-induced liver injury reported” in each case.
Regarding `O=C1O[C@H]([C@@H](O)CO)C(O)=C1O` [ASCORBIC ACID], the Hepatotoxicity entry in the data set with Hepatotoxicity [1], in the data set with Hepatotoxicity [2] and in the data set with Hepatotoxicity [3] was “drug-induced liver injury reported” in each case.
In the case of `CC(=O)Oc1ccccc1C(=O)O.NCCCCC(N)C(=O)O` [ASPIRIN DL-LYSINE], the Hepatotoxicity entry is “drug-induced liver injury reported” with Hepatotoxicity [1], “no drug-induced liver injury reported” in the data set with Hepatotoxicity [2] and “drug-induced liver injury reported” in the data set on Hepatotoxicity [3].
